The source of these data is patent publication US9663573B2, “Methods of treating liver conditions using Notch2 antagonists” (GENENTECH, INC., priority 2011, dated 2017).

The subject of experiment [1] is liver progenitor cells (oval cells). Description: Primary oval cell culture on Sw-3T3 feeder fibroblasts: colony formation and proliferation. Type of experiment: cell-based, mouse. The source says: To elucidate the role of Notch signaling in liver regeneration, an in vitro culture system was developed. Cell cultures were established by culturing primary oval cells on Sw-3T3 fibroblasts (ATCC), arrested with Mitomycin C (Sigma), in High Glucose Dulbecco's Modified Eagle Medium (DMEM; Invitrogen) supplemented with 15% Fetal Calf Serum (Sigma), non-essential amino acids (Invitrogen), Glutamax (Invitrogen), and ITS (Invitrogen).

Experiment [2] deals with T1, Notch2 (Mus musculus, UniProt O35516).
T1 construct: Cell cultures were established by culturing primary oval cells on Sw-3T3 fibroblasts; endogenous in cells; host or cells: primary mouse liver oval (progenitor) cells
Kind of experiment: Notch2 signaling in cultured oval cells (activated Notch2 ICD by Western blot, Hes1 expression). Type of experiment: cell-based. Conditions: FIG. 2H. The source says:
The anti-activated Notch2 antibody (clone 40-2-7) was generated against the peptide VIMAKRKRKHGSLW, corresponding to amino acids 1697-1710 of the human Notch2 protein sequence (SEQ ID NO:73), coupled to KLH (YenZym Custom Antibodies, LLC). Splenocytes from a rabbit producing an antibody with the appropriate specificity were used to generate hybridomas (Epitomics, Inc.). Clone 40-2-7 was identified by screening the resulting rabbit monoclonal antibodies by immunoblotting and immunohistochemistry. This antibody recognizes both human (FIG. 7B, left panel) and mouse (FIG. 7B, right panel) active Notch2 at endogenous levels.
Progenitors cultured in the culture system maintained growth (FIG. 2A) and formed colonies consisting of small, tightly packed cells with a high nuclear-cytoplasmic ratio and a distinct raised edge (FIG. 2A, left panel). The cells within these colonies were uniformly EpCAM positive (FIG. 2A, right panel). […] Activated Notch2 was detected by Western blot analysis using a rabbit monoclonal antibody raised against the S3 cleaved form of the human Notch2 protein (FIG. 7B). […]
Notch2 signaling was active in cultured oval cells, as transcriptionally active Notch2 intracellular domain (ICD) could be detected using an antibody specific to the γ-secretase cleaved form of this receptor (FIG. 2H). […]

T1 sequence (O35516 26-2473): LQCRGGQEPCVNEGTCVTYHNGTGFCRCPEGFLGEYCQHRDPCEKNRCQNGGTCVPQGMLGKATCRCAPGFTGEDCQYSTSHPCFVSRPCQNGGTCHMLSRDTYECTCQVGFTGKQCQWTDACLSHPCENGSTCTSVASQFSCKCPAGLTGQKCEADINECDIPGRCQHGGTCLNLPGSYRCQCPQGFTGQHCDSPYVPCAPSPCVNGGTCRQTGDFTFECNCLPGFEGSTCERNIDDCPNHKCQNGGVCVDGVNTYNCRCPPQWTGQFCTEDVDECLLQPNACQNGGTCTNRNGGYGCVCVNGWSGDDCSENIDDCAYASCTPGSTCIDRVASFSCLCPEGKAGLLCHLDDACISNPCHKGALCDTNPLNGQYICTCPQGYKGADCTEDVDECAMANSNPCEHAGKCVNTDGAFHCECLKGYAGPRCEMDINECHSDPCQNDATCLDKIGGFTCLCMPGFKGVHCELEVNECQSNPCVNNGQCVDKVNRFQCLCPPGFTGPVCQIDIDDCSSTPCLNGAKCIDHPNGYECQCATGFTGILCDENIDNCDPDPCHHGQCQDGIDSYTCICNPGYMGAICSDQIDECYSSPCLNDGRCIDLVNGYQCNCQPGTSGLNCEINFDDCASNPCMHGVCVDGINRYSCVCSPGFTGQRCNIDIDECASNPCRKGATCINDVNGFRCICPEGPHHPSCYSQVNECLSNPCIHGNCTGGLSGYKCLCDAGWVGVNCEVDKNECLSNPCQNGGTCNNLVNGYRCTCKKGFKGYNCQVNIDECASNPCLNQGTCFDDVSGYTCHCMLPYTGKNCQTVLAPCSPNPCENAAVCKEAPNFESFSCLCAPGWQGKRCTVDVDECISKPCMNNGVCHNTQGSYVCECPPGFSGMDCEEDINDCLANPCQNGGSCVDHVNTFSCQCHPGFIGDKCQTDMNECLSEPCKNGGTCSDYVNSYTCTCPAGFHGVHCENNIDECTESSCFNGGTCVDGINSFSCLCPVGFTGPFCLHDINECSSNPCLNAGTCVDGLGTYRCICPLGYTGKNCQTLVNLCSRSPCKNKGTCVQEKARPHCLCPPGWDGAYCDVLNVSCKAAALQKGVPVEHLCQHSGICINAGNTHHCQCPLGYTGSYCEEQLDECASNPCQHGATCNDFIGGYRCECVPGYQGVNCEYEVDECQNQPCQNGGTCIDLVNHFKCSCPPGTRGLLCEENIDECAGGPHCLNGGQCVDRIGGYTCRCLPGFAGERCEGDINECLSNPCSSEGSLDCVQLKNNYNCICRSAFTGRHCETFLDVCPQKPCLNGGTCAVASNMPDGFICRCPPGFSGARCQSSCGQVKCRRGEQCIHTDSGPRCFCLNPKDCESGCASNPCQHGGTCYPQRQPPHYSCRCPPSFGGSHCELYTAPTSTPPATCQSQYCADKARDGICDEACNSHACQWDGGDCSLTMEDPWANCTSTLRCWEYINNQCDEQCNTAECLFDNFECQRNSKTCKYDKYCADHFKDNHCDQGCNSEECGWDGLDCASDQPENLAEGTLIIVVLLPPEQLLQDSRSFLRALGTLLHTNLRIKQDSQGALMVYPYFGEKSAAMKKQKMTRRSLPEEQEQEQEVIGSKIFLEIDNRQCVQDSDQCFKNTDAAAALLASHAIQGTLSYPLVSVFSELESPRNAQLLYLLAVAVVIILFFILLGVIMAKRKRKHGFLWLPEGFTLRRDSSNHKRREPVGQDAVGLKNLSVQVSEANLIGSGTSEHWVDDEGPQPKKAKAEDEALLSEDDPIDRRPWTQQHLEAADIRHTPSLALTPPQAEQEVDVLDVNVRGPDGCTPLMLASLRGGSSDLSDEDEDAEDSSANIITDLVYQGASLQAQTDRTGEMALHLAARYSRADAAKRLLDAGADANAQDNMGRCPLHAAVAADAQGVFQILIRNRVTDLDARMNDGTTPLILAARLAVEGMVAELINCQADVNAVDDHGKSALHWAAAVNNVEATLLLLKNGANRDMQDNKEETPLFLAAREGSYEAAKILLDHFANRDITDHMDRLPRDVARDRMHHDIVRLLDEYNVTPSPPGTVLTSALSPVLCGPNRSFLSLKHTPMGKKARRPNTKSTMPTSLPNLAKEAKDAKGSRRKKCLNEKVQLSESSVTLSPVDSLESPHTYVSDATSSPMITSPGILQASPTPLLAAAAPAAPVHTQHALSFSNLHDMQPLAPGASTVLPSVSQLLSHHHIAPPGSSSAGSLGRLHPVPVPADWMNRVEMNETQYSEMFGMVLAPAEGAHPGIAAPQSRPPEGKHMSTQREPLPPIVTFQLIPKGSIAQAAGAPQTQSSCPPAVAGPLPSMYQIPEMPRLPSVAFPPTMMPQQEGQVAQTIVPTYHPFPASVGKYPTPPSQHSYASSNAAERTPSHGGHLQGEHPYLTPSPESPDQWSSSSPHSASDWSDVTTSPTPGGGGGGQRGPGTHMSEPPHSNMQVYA

As for `C[C@H](NC(=O)Cc1cc(F)cc(F)c1)C(=O)N[C@H](C(=O)OC(C)(C)C)c1ccccc1` [DAPT, N—[N-(3,5-difluorophenacetyl)-1-alanyl]-S-phenylglycine t-butyl ester], the progenitor cell proliferation entry in experiment [1] (FIG. 2D) was “small increase”. Moreover, the colony formation frequency result in experiment [1] (plated CD45 negative, non-parenchymal cells, without DAPT approximately 1 colony per 100,000) is “approximately 1 colony per 10,000 cells plated”. Also, in experiment [1] (primary cultures treated with DAPT vs untreated, FIG. 2B), the “enhancement of colony formation” value is on record as “approximately ten-fold”. Moreover, the “appearance of gamma-secretase cleaved (active) form of Notch2 (ICD)” value in experiment [2] was “absent”.
